Data: the supplement of paper PMC9663587

Tests used:
[1] = compound: CN(C)CC[C@H](CSc1ccccc1)Nc1ccc(S(=O)(=O)NC(=O)c2ccc(N3CCN(Cc4ccccc4-c4ccc(Cl)cc4)CC3)cc2)cc1[N+](=O)[O-] [ABT-737]
[2] = compound: CN1CCN(CCOc2cc(OC3CCOCC3)c3c(Nc4c(Cl)ccc5c4OCO5)ncnc3c2)CC1 [Saracatinib/AZD0530]
[3] = compound: T1, CN1CC[C@H](c2c(O)cc(O)c3c(=O)cc(-c4ccccc4Cl)oc23)[C@H](O)C1 [Flavopiridol]
[4] = compound: CO[C@@H](C)Cn1c(=O)n(C)c2cnc3ccc(-c4cncc(C(C)(C)O)c4)cc3c21
[5] = compound: Cc1nc(-c2cn3c(n2)-c2ccc(-c4cnn(C(C)(C)C(N)=O)c4)cc2OCC3)n(C(C)C)n1 [Taselisib/GDC0032]
[6] = compound: C=CC(=O)Nc1ccc(C(=O)Nc2[nH]nc3c2CN(C(=O)N[C@H](CN(C)C)c2ccccc2)C3(C)C)cc1 [YKL-5-124]; test: GR value, 72 h; higher = faster growth (1 = untreated, <0 = killing);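 also: breast cancer and non-malignant breast epithelial lines, nine half-log doses, viable cells counted by Hoechst and LIVE/DEAD dye imaging versus time-zero plates and DMSO controls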
[7] = compound: CC(=O)c1c(C)c2cnc(Nc3ccc(N4CCN(CCOCCOCCOCCNC(=O)COc5cccc6c5C(=O)N(C5CCC(=O)NC5=O)C6=O)CC4)cn3)nc2n(C2CCCC2)c1=O [BSJ-03-123]; test: as above
[8] = compound: CC(=O)c1c(C)c2cnc(Nc3ccc(N4CCNCC4)cn3)nc2n(C2CCCC2)c1=O; test: as above
[9] = compound: CCN1CCN(Cc2ccc(Nc3ncc(F)c(-c4cc(F)c5nc(C)n(C(C)C)c5c4)n3)nc2)CC1; test: as above
[10] = compound: CCOc1cc2ncc(C#N)c(Nc3ccc(OCc4ccccn4)c(Cl)c3)c2cc1NC(=O)/C=C/CN(C)C [Neratinib/HKI272]; test: as above
[11] = compound: CCc1cnn2c(NCc3ccc[n+]([O-])c3)cc(N3CCCC[C@H]3CCO)nc12; test: as above
[12] = compound: CN(C)C(=O)c1cc2cnc(Nc3ccc(N4CCNCC4)cn3)nc2n1C1CCCC1 [LEE011/Ribociclib]; test: as above
[13] = compound: CN(C)C/C=C/C(=O)Nc1ccc(C(=O)N2CCC[C@@H](Nc3ncc(Cl)c(-c4c[nH]c5ccccc45)n3)C2)cc1 [THZ531]; test: as above
[14] = compound: CN(C)C/C=C/C(=O)Nc1ccc(C(=O)Nc2cccc(Nc3ncc(Cl)c(-c4c[nH]c5ccccc45)n3)c2)cc1 [THZ1]; test: as above
[15] = compound: T1, Flavopiridol; test: as above
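For GR50, 72 h in this document: breast cancer and non-malignant breast epithelial cell lines, Deep Dye Drop or Dye Drop imaging, nine half-log doses, GR normalized to time-zero plates and DMSO-only controls.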

Cell Line: MDAMB468
- GR50, 72 h [1]: 6.03 µM
- GR50, 72 h [2]: 4.96 µM
- GR50, 72 h [3]: 0.173 µM
- GR50, 72 h [4]: 0.0123 µM
- GR50, 72 h [5]: 2.35 µM
- GR value ([6]; 0.001 µM): 0.23 GR
- GR value ([6]; 0.003162 µM): 0.077 GR
- GR value ([6]; 0.01 µM): 0 GR
- GR value ([6]; 0.03162 µM): -0.101 GR
- GR value ([6]; 0.1 µM): -0.149 GR
- GR value ([6]; 0.3162 µM): -0.177 GR
- GR value ([6]; 1 µM): -0.217 GR
- GR value ([6]; 3.162 µM): -0.309 GR
- GR value ([6]; 10 µM): -0.549 GR
- GR value ([7]; 0.001 µM): 1 GR
- GR value ([7]; 0.003162 µM): 0.923 GR
- GR value ([7]; 0.01 µM): 0.902 GR
- GR value ([7]; 0.03162 µM): 0.806 GR
- GR value ([7]; 0.1 µM): 0.91 GR
- GR value ([7]; 0.3162 µM): 0.771 GR
- GR value ([7]; 1 µM): 0.636 GR
- GR value ([7]; 3.162 µM): 0.476 GR
- GR value ([7]; 10 µM): -0.0278 GR
- GR value ([8]; 0.0003162 µM): 0.963 GR
- GR value ([8]; 0.001 µM): 1.02 GR
- GR value ([8]; 0.003162 µM): 1.02 GR
- GR value ([8]; 0.01 µM): 1.05 GR
- GR value ([8]; 0.03162 µM): 1.02 GR
- GR value ([8]; 0.1 µM): 1.01 GR
- GR value ([8]; 0.3162 µM): 1.06 GR
- GR value ([8]; 1 µM): 1.05 GR
- GR value ([8]; 3.162 µM): 1.05 GR
- GR value ([9]; 0.001 µM): 0.94 GR
- GR value ([9]; 0.003162 µM): 0.966 GR
- GR value ([9]; 0.01 µM): 0.979 GR
- GR value ([9]; 0.03162 µM): 1.04 GR
- GR value ([9]; 0.1 µM): 1.06 GR
- GR value ([9]; 0.3162 µM): 1.01 GR
- GR value ([9]; 1 µM): 0.811 GR
- GR value ([9]; 3.162 µM): 0.321 GR
- GR value ([9]; 10 µM): -0.34 GR
- GR value ([10]; 0.0003162 µM): 0.947 GR
- GR value ([10]; 0.001 µM): 0.97 GR
- GR value ([10]; 0.003162 µM): 0.983 GR
- GR value ([10]; 0.01 µM): 0.969 GR
- GR value ([10]; 0.03162 µM): 0.838 GR
- GR value ([10]; 0.1 µM): 0.56 GR
- GR value ([10]; 0.3162 µM): 0.257 GR
- GR value ([10]; 1 µM): -0.0811 GR
- GR value ([10]; 3.162 µM): -0.395 GR
- GR value ([11]; 0.0001 µM): 0.988 GR
- GR value ([11]; 0.0003162 µM): 1.01 GR
- GR value ([11]; 0.001 µM): 0.985 GR
- GR value ([11]; 0.003162 µM): 1.03 GR
- GR value ([11]; 0.01 µM): 0.863 GR
- GR value ([11]; 0.03162 µM): -0.106 GR
- GR value ([11]; 0.1 µM): -0.255 GR
- GR value ([11]; 0.3162 µM): -0.339 GR
- GR value ([11]; 1 µM): -0.412 GR
- GR value ([12]; 0.001 µM): 0.985 GR
- GR value ([12]; 0.003162 µM): 1.04 GR
- GR value ([12]; 0.01 µM): 0.951 GR
- GR value ([12]; 0.03162 µM): 1.01 GR
- GR value ([12]; 0.1 µM): 1.05 GR
- GR value ([12]; 0.3162 µM): 0.965 GR
- GR value ([12]; 1 µM): 0.935 GR
- GR value ([12]; 3.162 µM): 1 GR
- GR value ([12]; 10 µM): 1.02 GR
- GR value ([13]; 0.0001 µM): 1.02 GR
- GR value ([13]; 0.0003162 µM): 1 GR
- GR value ([13]; 0.001 µM): 0.926 GR
- GR value ([13]; 0.003162 µM): 1.04 GR
- GR value ([13]; 0.01 µM): 0.906 GR
- GR value ([13]; 0.03162 µM): 0.636 GR
- GR value ([13]; 0.1 µM): 0.082 GR
- GR value ([13]; 0.3162 µM): -0.19 GR
- GR value ([13]; 1 µM): -0.188 GR
- GR value ([14]; 0.0001 µM): 1 GR
- GR value ([14]; 0.0003162 µM): 1.07 GR
- GR value ([14]; 0.001 µM): 1 GR
- GR value ([14]; 0.003162 µM): 0.92 GR
- GR value ([14]; 0.01 µM): 0.76 GR
- GR value ([14]; 0.03162 µM): 0.375 GR
- GR value ([14]; 0.1 µM): -0.131 GR
- GR value ([14]; 0.3162 µM): -0.226 GR
- GR value ([14]; 1 µM): -0.435 GR
- GR value ([15]; 0.0001 µM): 0.989 GR
- GR value ([15]; 0.0003162 µM): 0.962 GR
- GR value ([15]; 0.001 µM): 0.929 GR
- GR value ([15]; 0.003162 µM): 0.953 GR
- GR value ([15]; 0.01 µM): 0.931 GR
- GR value ([15]; 0.03162 µM): 0.898 GR
- GR value ([15]; 0.1 µM): 0.662 GR
- GR value ([15]; 0.3162 µM): 0.213 GR
- GR value ([15]; 1 µM): -0.426 GR
